The values below come from ChEMBL document CHEMBL1158204, “Metabolites from an Antarctic sponge-associated bacterium, Pseudomonas aeruginosa” (1996).

Holding throughout (assay type): functional
Common to all, as to conditions: for MIC: 48 h

Assay [1] deals with Staphylococcus aureus. Description: Antibacterial activity against Staphylococcus aureus after 2 days by disk assay.
Assay [2] concerns Bacillus cereus. The experiment in a line: Antibacterial activity against Bacillus cereus after 2 days by disk assay.
Assay [3] has as its system Micrococcus luteus. Description: Antibacterial activity against Micrococcus luteus after 2 days by disk assay.

The source made the active and inactive calls.

On to `CC[C@H](C)[C@@H]1NC(=O)[C@@H]2CCCN2C1=O`, for which the result in assay [1], in assay [2] and in assay [3] was inactive.
For `O=C1N[C@@H](Cc2ccc(O)cc2)C(=O)N2CCC[C@@H]12`, the outcome in assay [1], in assay [2] and in assay [3] was inactive.
For `CSCC[C@@H]1NC(=O)[C@@H]2CCCN2C1=O`, the result in assay [1], in assay [2] and in assay [3] was inactive.
With `O=C1N[C@@H](Cc2ccccc2)C(=O)N2CCC[C@@H]12`, the outcome in assay [1], in assay [2] and in assay [3] was inactive.
Take `CC(C)C[C@@H]1NC(=O)[C@@H]2CCCN2C1=O`: the result in assay [1], in assay [2] and in assay [3] was inactive.
With `CC(C)[C@@H]1NC(=O)[C@@H]2CCCN2C1=O`, the outcome in assay [1], in assay [2] and in assay [3] was inactive.
For `O=C(O)c1cccc2nc3ccccc3nc12` [PHENAZINE-1-CARBOXYLIC ACID], the results for the MIC in assay [1], in assay [2] and in assay [3] were less than 5 µg/mL, less than 0.5 µg/mL and less than 5 µg/mL, respectively.
In the case of `NC(=O)c1cccc2nc3ccccc3nc12`, the MIC in assay [1] was less than 5 µg/mL; in assay [2] it was less than 0.5 µg/mL; in assay [3], less than 5 µg/mL.

A word on the MIC: it is the smallest concentration in the dilution series that meets the test's criterion for growth inhibition. A low value points to inhibition by little substance.
